Assay results taken from US20240270821A1, “GIP/GLP1/GCG TRI-RECEPTOR AGONISTS AND USES THEREOF” (priority 2023, published 2024).
Substitutions are numbered along the chain they refer to. Starred links: 1 amine or outer side, 2 acyl side, 3 side chain; linkers in the order of their positions; H or OH if unused. Non-standard residues stand in square brackets, D forms with d. Groups on a side chain read outwards from the residue. *: point of attachment. C20 diacid = O=C(O)CCCCCCCCCCCCCCCCCCC(=O)*; αMePhe(2-F) = C[C@](N)(Cc1ccccc1F)C(=O)O; γGlu = O=C(O)[C@H](CCC(=O)[*:2])N[*:1]; NMeY = CN[C@@H](Cc1ccc(O)cc1)C(=O)O; αMeF = C[C@](N)(Cc1ccccc1)C(=O)O; AEEA = NCCOCCOCC(=O)O; Aib = CC(C)(N)C(=O)O

T1: hGIPR (Homo sapiens, UniProt P48546)
T1 sequence (P48546 22-466): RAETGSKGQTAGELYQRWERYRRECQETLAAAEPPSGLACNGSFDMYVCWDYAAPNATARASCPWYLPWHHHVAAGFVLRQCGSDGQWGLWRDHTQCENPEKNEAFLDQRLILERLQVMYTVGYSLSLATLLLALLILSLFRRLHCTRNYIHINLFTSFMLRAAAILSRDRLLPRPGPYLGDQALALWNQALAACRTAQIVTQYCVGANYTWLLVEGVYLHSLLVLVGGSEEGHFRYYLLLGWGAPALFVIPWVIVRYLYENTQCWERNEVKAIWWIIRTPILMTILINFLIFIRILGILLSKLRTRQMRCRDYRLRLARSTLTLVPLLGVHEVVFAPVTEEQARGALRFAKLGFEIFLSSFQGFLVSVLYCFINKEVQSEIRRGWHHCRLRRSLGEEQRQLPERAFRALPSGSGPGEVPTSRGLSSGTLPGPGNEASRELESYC

T2: human GIP receptor (human) (UniProt P48546)
T2 sequence (looked up): T1 sequence (P48546 22-466)

B1: Example 2 (peptide)
chain: YXQGTFTSDFSKXLDKKAQXAFIEYLLAGGPSSGEPPPSGE
modifications: Aib, αMeL; acylated Lys; C-terminal amide; synthetic construct; SITE 2: note = 2-Aminoisobutyric Acid; SITE 13: note = alpha-methyl-leucine; SITE 17: note = Lysine is chemically modified through conjugation of the epsilon-amino group of the Lysine side chain with (2-[2-(2-Amino-ethoxy)-ethoxy]-acetyl)-(gamma-Glu)-CO-(CH2) 18-CO2H; SITE 20: n
B2: Example 3 (peptide)
chain: B1 chain with G40S
modifications: Aib, αMeL; acylated Lys; C-terminal amide; synthetic construct; SITE 2: note = 2-Aminoisobutyric Acid; SITE 13: note = alpha-methyl-leucine; SITE 17: note = Lysine is chemically modified through conjugation of the epsilon-amino group of the Lysine side chain with (2-[2-(2-Amino-ethoxy)-ethoxy]-acetyl)-(gamma-Glu)-CO-(CH2) 18-CO2H; SITE 20: n
B3: Example 4 (peptide)
chain: B1 chain with G40E
modifications: Aib, alpha-methyl-Leu, acylated Lys, C-terminal amide; synthetic construct; SITE 2: note = 2-Aminoisobutyric Acid; SITE 13: note = alpha-methyl-leucine; SITE 17: note = Lysine is chemically modified through conjugation of the epsilon-amino group of the Lysine side chain with (2-[2-(2-Amino-ethoxy)-ethoxy]-acetyl)-(gamma-Glu)-CO-(CH2) 18-CO2H; SITE 20: n
B4: Example 5 (peptide)
chain: B1 chain with G40S
modifications: acylated Lys, C-terminal amide, non-natural residues; synthetic construct; SITE 2: note = 2-Aminoisobutyric Acid; SITE 13: note = alpha-methyl-leucine; SITE 17: note = Lysine is chemically modified through conjugation of the epsilon-amino group of the Lysine side chain with (2-[2-(2-Amino-ethoxy)-ethoxy]-acetyl)2-(gamma-Glu)-CO-(CH2 )18-CO2H; SITE 20:

Tests used:
hGLP-1R [1] = target: T3, hGLP-1R (Homo sapiens, UniProt P43220); assay: Functional cAMP activation in the presence of 0.1% casein (no HSA); type: cell-based; details: in the presence of 0.1% casein (no HSA); geometric mean; read-out: Relative cAMP EC50, hGLP-1R;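 further: intracellular cAMP rise after 30 min at 37 °C read by HTRF, normalized between buffer only (0%) and maximal control ligand (100%), four-parameter variable-slope fit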
Target sequence in this assay (P43220 24-463): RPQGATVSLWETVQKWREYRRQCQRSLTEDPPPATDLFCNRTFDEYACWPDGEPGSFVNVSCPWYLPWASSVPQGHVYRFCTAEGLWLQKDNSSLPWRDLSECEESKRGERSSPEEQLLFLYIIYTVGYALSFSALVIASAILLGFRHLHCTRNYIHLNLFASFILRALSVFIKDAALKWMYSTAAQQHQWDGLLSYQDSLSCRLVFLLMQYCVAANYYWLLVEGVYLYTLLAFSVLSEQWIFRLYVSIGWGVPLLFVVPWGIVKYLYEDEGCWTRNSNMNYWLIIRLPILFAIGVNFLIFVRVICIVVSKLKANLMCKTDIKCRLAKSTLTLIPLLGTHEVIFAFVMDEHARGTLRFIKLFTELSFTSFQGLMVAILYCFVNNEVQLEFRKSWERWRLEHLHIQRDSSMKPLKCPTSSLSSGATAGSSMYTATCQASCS

human GcgR = human GcgR (Homo sapiens, UniProt P47871); assay: Functional cAMP activity in the presence of 1% HSA; type: cell-based; details: read-out: cAMP Rel EC50, hGcgR
hGIPR [2] = target: T1, hGIPR; assay: Functional cAMP activation in the presence of 0.1% casein (no HSA); type: cell-based; details: in the presence of 0.1% casein (no HSA); geometric mean; read-out: Relative cAMP EC50, hGIPR;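 further: intracellular cAMP rise after 30 min at 37 °C read by HTRF against a standard curve, scaled between buffer alone (0%) and top control ligand concentration (100%), four-parameter fit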
Protocol: After a 30-minute incubation at 37° C., the resulting increase in intracellular cAMP is quantitatively determined using the CisBio CAMP Dynamic 2 HTRF Assay Kit (62AM4PEJ). Briefly, cAMP levels within the cell are detected by adding the cAMP-d2 conjugate in cell lysis buffer followed by the antibody anti-cAMP-Eu^3+-Cryptate, also in cell lysis buffer.
Intracellular cAMP levels are determined by extrapolation using a standard curve. Dose response curves of compounds are plotted as the percentage of stimulation normalized to minimum (buffer only) and maximum (maximum concentration of each control ligand) values and analyzed using a four parameter non-linear regression fit with a variable slope (Genedata Screener 13). EC50 is the concentration of compound causing half-maximal simulation in a dose response curve. Each relative EC50 value for the Geometric mean calculation is determined from a curve fitting.

hGLP-1R [3] = target: T3, hGLP-1R; assay: GLP-1R CHO cell β-arrestin recruitment assay; type: cell-based; parameters: host or cells: CHO-K1 (PathHunter, assay-ready frozen cells); details: for EC50: CHO-K1 PathHunter, β-arrestin-2, 0.1% casein, read-out: hGLP1R β-arrestin Rel EC50; for % Stimulation Max: normalized to GLP-1(7-36) as maximum control;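 on all read-outs here: luminescence read after 90 min peptide exposure at 37 °C and a further 60 min with detection reagent at room temperature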
Target sequence in this assay (P43220 24-463): as above
Target sequence in this assay (P32121 whole entry partner): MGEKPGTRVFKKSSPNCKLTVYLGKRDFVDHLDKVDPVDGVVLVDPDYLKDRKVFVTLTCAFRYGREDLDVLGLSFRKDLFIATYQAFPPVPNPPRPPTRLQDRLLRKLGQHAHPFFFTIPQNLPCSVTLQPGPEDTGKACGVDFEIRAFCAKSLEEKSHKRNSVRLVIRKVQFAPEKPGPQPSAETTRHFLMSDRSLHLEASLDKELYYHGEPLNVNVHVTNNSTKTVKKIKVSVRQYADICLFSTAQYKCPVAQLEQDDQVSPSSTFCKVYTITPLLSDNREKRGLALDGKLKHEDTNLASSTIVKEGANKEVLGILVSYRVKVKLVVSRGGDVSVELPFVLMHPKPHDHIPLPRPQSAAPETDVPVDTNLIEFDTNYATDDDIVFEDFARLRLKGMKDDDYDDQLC

hGcgR = hGcgR (Homo sapiens, UniProt P47871); assay: Functional cAMP activation in the presence of 0.1% casein (no HSA); type: cell-based; details: in the presence of 0.1% casein (no HSA); geometric mean; read-out: Relative cAMP EC50, hGcgR;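 further: intracellular cAMP rise after 30 min at 37 °C, read by HTRF against a cAMP standard curve, scaled from buffer only (0%) to maximal control ligand response (100%)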
hGLP-1R [4] = target: T3, hGLP-1R; assay: Functional cAMP activity in the presence of 1% HSA; type: cell-based; details: read-out: cAMP Rel EC50, hGLP-1R
Target sequence in this assay (P43220 24-463): as the sequence (P43220 24-463) above

hGIPR [5] = target: T1, hGIPR; assay: Functional cAMP activity in the presence of 1% HSA; type: cell-based; details: read-out: cAMP Rel EC50, hGIPR
human GLP1-R = human GLP1-R (Homo sapiens, UniProt P43220); assay: GLP1-R internalization assay in HEK293 cells; type: cell-based
hGLP-1R [6] = target: T3, hGLP-1R; assay: cell-based or functional assay
Target sequence in this assay (P43220 24-463): as above

[7] = target: human glucagon receptor (human) (UniProt P47871); assay: cell-based or functional assay
[8] = target: T2, human GIP receptor (human); assay: cell-based or functional assay
[9] = target: Pro-Link-tagged Human GLP-1R (human) (UniProt P43220); assay: cell-based or functional assay
[10] = target: human GLP1-R (SNAP-GLP-1R expressed in HEK293 cells) (human) (UniProt P43220); assay: cell-based or functional assay
human GLP1-R (SNAP-GLP-1R expressed in HEK293 cells) (human), sequence (P43220 24-463): as above

human glucagon receptor (human), sequence (P47871 26-477): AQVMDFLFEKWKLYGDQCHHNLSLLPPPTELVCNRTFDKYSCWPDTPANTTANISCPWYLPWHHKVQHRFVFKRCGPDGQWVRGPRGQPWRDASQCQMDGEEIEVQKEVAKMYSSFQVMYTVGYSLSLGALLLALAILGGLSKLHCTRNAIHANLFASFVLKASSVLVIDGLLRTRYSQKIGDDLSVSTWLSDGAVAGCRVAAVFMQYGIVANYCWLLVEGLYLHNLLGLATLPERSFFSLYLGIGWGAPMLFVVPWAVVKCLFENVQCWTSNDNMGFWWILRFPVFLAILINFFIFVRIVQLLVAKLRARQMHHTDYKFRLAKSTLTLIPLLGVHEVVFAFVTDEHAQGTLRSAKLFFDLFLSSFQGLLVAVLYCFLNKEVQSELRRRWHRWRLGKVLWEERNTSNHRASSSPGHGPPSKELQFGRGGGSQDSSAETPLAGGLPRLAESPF
hGcgR, sequence (P47871 26-477): as above
human GcgR, sequence (P47871 26-477): as above
Pro-Link-tagged Human GLP-1R (human), sequence (P43220 24-463): as the sequence (P43220 24-463) above
human GLP1-R, sequence (P43220 24-463): as above

Molecule | EC50 (hGLP-1R [1]) [nM] | EC50 (human GcgR) [nM] | EC50 (hGIPR [2]) [nM] | EC50 (hGLP-1R [3]) [nM] | % Stimulation Max (hGLP-1R [3]) [%] | EC50 (hGcgR) [nM] | EC50 (hGLP-1R [4]) [nM] | EC50 (hGIPR [5]) [nM] | Internalization % TOP (human GLP1-R) [%] | Relative cAMP EC50 (hGLP-1R [6]) [nM] | cAMP Rel EC50 (in the presence of 1% HSA) (hGLP-1R [6]) [nM] | Relative cAMP EC50 [7] [nM] | cAMP Rel EC50 (in the presence of 1% HSA) [7] [nM] | Relative cAMP EC50 [8] [nM] | cAMP Rel EC50 (in the presence of 1% HSA) [8] [nM] | % Stimulation Max [9] [%] | hGLP1R β-arrestin Rel EC50 [9] [nM] | GLP1R Internalization EC50 [10] [nM] | Internalization % TOP [10] [%]
H-Y[Aib]QGT[αMePhe(2-F)]TSDYSKLLDKIAQK([AEEA-γGlu-C20 diacid])AFIEYLIEGGPSSGEPPPSEG-NH2 [Example 304] | 0.551 | 1720 | 0.127 | 9.21 | 47.8 | 2.31 | 172 | 48 |  |  |  |  |  |  |  |  |  |  | 
H-Y[Aib]QGT[αMePhe(2-F)]TSDYSKLLDKQAQK([AEEA-γGlu-C20 diacid])QFIEYLIEGGPSSGEPPPSEG-NH2 [Example 309] | 0.808 | 3910 | 0.32 | 6.72 | 47.2 | 9.28 | 251 | 424 |  |  |  |  |  |  |  |  |  |  | 
H-[NMeY][Aib]QGT[αMeF]TSDYSILLDKIAAK([AEEA-AEEA-γGlu-C20 diacid])AFVQWLIAGGPSSGEPPPSEG-NH2 [Example 300] | 1.05 | 976 | 0.0975 | 15.7 | 40.3 | 6.54 | 98 | 12.9 |  |  |  |  |  |  |  |  |  |  | 
H-[NMeY][Aib]QGT[αMeF]TSDYSILLDKQAAK([AEEA-AEEA-γGlu-C20 diacid])AFVQWLIAGGPSSGEPPPSEG-NH2 [Example 301] | 0.641 | 1500 | 0.722 | 13.2 | 59.1 | 6.73 | 82.4 | 81.8 |  |  |  |  |  |  |  |  |  |  | 
H-[NMeY][Aib]QGT[αMeF]TSDYSILLDKQAAK([AEEA-AEEA-γGlu-C20 diacid])AFVQWLIEGGPSSGEPPPSEG-NH2 [Example 302] | 0.621 | 1370 | 0.7 | 11.2 | 56.6 | 4.47 | 73.6 | 91.8 |  |  |  |  |  |  |  |  |  |  | 
Tirzepatide [reference compound] |  |  |  |  | 10.5 |  |  |  | 60.3 |  |  |  |  |  |  |  |  |  | 
B1 |  |  |  |  |  |  |  |  |  | 1.65 | 631 | 4.29 | 1630 | 0.207 | 75.5 | 12.3 | > 10000 | 49.5 | 66.8
B2 |  |  |  |  |  |  |  |  |  | 1.67 | 546 | 3.8 | 1590 | 0.217 | 48.1 | 16.5 | > 10000 | 49.2 | 69.7
B3 |  |  |  |  |  |  |  |  |  | 1.66 | 869 | 3.2 | 1580 | 0.192 | 62.3 | 15.8 | 23.2 | 49.1 | 67.8
B4 |  |  |  |  |  |  |  |  |  | 2.37 | 675 | 7.4 | 2670 | 0.177 | 32.5 | 18.4 | > 10000 | 53.4 | 75
